The values below come from ChEMBL document CHEMBL3997775, “Challenges and Opportunities in the Development of Serine Synthetic Pathway Inhibitors for Cancer Therapy” (J Med Chem, 2017).

≈ marks a conversion by molar mass, not a printed value. Where only a bound is given, the exact number is not on record here.

In the first data set the target is T1, D-3-phosphoglycerate dehydrogenase (Homo sapiens, UniProt O43175).
T1 sequence (O43175 whole entry): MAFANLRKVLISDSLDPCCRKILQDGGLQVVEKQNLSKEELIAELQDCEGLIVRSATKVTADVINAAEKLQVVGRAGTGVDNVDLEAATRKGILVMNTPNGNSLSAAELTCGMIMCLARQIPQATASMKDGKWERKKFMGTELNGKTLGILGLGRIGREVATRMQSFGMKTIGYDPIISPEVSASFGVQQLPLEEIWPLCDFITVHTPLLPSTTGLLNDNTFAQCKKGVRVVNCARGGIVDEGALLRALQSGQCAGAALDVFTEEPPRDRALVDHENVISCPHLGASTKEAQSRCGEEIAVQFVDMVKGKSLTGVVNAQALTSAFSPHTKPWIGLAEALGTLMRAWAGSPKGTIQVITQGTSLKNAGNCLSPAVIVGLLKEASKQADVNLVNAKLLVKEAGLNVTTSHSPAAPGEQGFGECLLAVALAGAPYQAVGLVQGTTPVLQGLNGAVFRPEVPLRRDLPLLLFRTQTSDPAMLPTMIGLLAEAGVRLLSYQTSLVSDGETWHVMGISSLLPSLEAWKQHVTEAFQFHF
As to the kind of experiment: Inhibition of full length PHGDH (unknown origin) using 3-phosphoglycerate as substrate incubated for 60 mins in presence of PSAT1, PSPH by resazurin based diaphorase coupled assay.
Details: not given
As a reminder, the IC50 is the point on the concentration scale where inhibition reaches its midpoint. Consider `Cc1ccnc(NS(=O)(=O)c2ccc(NC(=O)c3cc(-c4ccccc4O)n[nH]3)cc2)n1`, for which the IC50 was less than 50 µM. Same read-out and setting: then `O=C(Nc1ccc(S(=O)(=O)Nc2ncccn2)cc1)c1cc(-c2ccccc2F)n[nH]1`, with less than 50 µM. Take `O=C(Nc1ccc(S(=O)(=O)Nc2ncccn2)cc1)c1cc(-c2ccccc2C(=O)O)n[nH]1`: the IC50 was more than 100 µM.

As to `CN(c1ncccn1)S(=O)(=O)c1ccc(NC(=O)c2cc(-c3ccccc3)n[nH]2)cc1`, the IC50 is more than 100 µM. In the case of `O=C(Nc1ccc(S(=O)(=O)Nc2ccccn2)cc1)c1cc(-c2ccccc2O)n[nH]1`, the IC50 is more than 100 µM. In the case of `O=C(Nc1ccc(S(=O)(=O)NCc2ccco2)cc1)c1cc(-c2ccccc2O)n[nH]1`, the half-inhibitory concentration (IC50) is more than 100 µM. `O=C(Nc1ccc(S(=O)(=O)NCCCN2CCOCC2)cc1)c1cc(-c2ccccc2O)n[nH]1`: the IC50 was more than 100 µM. The same measure, in the same setting: under `CN(c1ncccn1)S(=O)(=O)c1ccc(NC(=O)c2cc(-c3ccccc3O)n[nH]2)cc1` stands more than 100 µM; under `O=C(Nc1ccc(S(=O)(=O)Nc2ncccn2)cc1)c1cc(-c2ccccc2)on1`, more than 100 µM; under `COc1ccccc1-c1cc(C(=O)Nc2ccc(S(=O)(=O)Nc3ncccn3)cc2)[nH]n1`, less than 50 µM. Turning to `Nc1ncccc1-c1cc(C(=O)Nc2ccc(S(=O)(=O)Nc3ncccn3)cc2)[nH]n1`, the IC50 is more than 100 µM.

Consider `O=C(Nc1ccc(S(=O)(=O)Nc2ncccn2)cc1)c1cc(-c2ccccc2)no1`, for which the IC50 was more than 100 µM. In the case of `O=C(c1cc(-c2ccccc2)n[nH]1)N1CCC2C=C(S(=O)(=O)Nc3ncccn3)C=CC21` (stereo not drawn), the half-maximal inhibitory concentration (IC50) was more than 100 µM. Regarding `Cc1cc(C)nc(NS(=O)(=O)c2ccc(NC(=O)c3cc(-c4ccccc4)n[nH]3)cc2)n1`, the IC50 was less than 50 µM. On the same count and under the same terms, under `O=C(Nc1ccc(S(=O)(=O)Nc2ncccn2)cc1)c1cc(-c2ccccc2)n[nH]1` stands less than 50 µM. Same read-out and setting: under `O=C(Nc1ccc(S(=O)(=O)Nc2ncccn2)cc1)c1cc(-c2ccccc2)nn1-c1ccccc1` stands more than 100 µM; under `Cc1c(-c2ccccc2)n[nH]c1C(=O)Nc1ccc(S(=O)(=O)Nc2ncccn2)cc1`, more than 100 µM. Regarding `O=C(Nc1ccc(S(=O)(=O)Nc2ccccn2)cc1)c1cc(-c2ccccc2)n[nH]1`, the IC50 was 50 to 100 µM. In the case of `O=C(Nc1ccc(S(=O)(=O)N2CCCCC2)cc1)c1cc(-c2ccccc2O)n[nH]1`, the IC50 was more than 100 µM. Same read-out and setting: then `O=C(Nc1ccc(S(=O)(=O)Nc2ncccn2)cc1)c1cc(-c2ccccc2O)n[nH]1`, with less than 50 µM. Turning to `NS(=O)(=O)c1ccc(NC(=O)c2cc(-c3ccccc3O)[nH]n2)cc1`, the IC50 was more than 100 µM. Still for that read-out and setting: then `Cn1nc(-c2ccccc2)cc1C(=O)Nc1ccc(S(=O)(=O)Nc2ncccn2)cc1`, with less than 50 µM.

The next data set deals with T2, D-3-phosphoglycerate dehydrogenase (Homo sapiens) (UniProt O43175).
T2 sequence (whole entry): T1 sequence (O43175 whole entry)
As to the kind of experiment: Binding affinity to human N- terminal His6-tagged PHGDH (1 to 533 residues) expressed in Escherichia coli Rosetta (DE3) assessed as change in melting temperature by SYPRO orange dye based DSF assay.
Details: not given
(In general: DSF heats the sample and reads unfolding from a dye or from intrinsic fluorescence.)
In general, ΔTm refers to the change in melting temperature against a reference sample. In the case of `NC(=O)c1ccc(F)c(Cl)c1`, the shift in melting temperature (ΔTm) is 2.3 °C. For the compound `Cc1cccc2cc[nH]c12`, the ΔTm was 2.4 °C. In the case of `O=C1COc2cc(O)ccc21`, the thermal shift (ΔTm) was found to be 1.7 °C. As for `Cn1nc(-c2ccccc2)cc1N`, the shift in melting temperature (ΔTm) amounted to 2.2 °C. The same measure, in the same setting: under `Nc1cccc(-c2cnco2)c1` stands 1.4 °C; under `Oc1noc2ccccc12`, 2.5 °C; under `COc1ccc(NC(C)=O)cc1Cl`, 1.3 °C.

Test system in another data set: not listed separately
As to the kind of experiment: Solubility of the compound.
Details: not given
Type of data set: physicochemical.
Usually solubility stands for how much of the substance goes into solution per volume. On to `O=C(COc1cc2[nH]c(C(=O)N[C@H](CO)c3ccc(C(=O)O)cc3)cc2cc1Cl)NCCO`, for which the concentration in solution (solubility) came to 973 µM (≈ 463 µg/mL).

Test system in the next data set: not listed separately
As to the kind of experiment: Lipophilicity, logD of the compound. The data set is classed as physicochemical. Particulars: octanol/water.
By logD is commonly meant lipophilicity at a set pH, counting ionised and neutral species. Read a low logD as lower lipophilicity. The compound `O=C(COc1cc2[nH]c(C(=O)N[C@H](CO)c3ccc(C(=O)O)cc3)cc2cc1Cl)NCCO` gave a logD of less than -1.

The next data set has as its target T1, D-3-phosphoglycerate dehydrogenase.
Details: not given
As to `Cc1cccc(NC(=S)N2CCN(c3cccc(C(F)(F)F)c3)CC2)c1`, the IC50 is more than 57 µM. `Cc1cc(C)nc(NC(=S)N2CCN(c3cccc(C(F)(F)F)c3)CC2)c1` displayed an IC50 of 6.5 µM.
